Here are results for three compounds from US20090124644A1, “HIV INHIBITING 2-(4-CYANOPHENYLAMINO) PYRIMIDINE DERIVATIVES” (priority 2005, published 2009).

Assay type in all cases: cell-based
The subject of test [1] is Strain D, mutation Y188L in HIV reverse transcriptase. The experiment in a line: Antiviral spectrum, cellular assay, strain D. The note with it: Human immunodeficiency virus 1, read-out: pEC50 D (converted). How it is done:
(§1) Because of the increasing emergence of drug resistant HIV strains, the present compounds were tested for their potency against clinically isolated HIV strains harboring several mutations. These mutations are associated with resistance to reverse transcriptase inhibitors and result in viruses that show various degrees of phenotypic cross-resistance to the currently commercially available drugs such as for instance AZT and delavirdine.
(§2) The antiviral activity of the compound of the present invention has been evaluated in the presence of wild type HIV and HIV mutants bearing mutations at the reverse transcriptase gene. The activity of the compounds is evaluated using a cellular assay and the residual activity is expressed in pEC50 values. The columns IIIB and A-G in the table list the pEC50 values against various strains IIIB, A-G.
(§3) Strain IIIB is wild type HIV-LAI strain Strain A contains mutation Y181C in HIV reverse transcriptase, Strain B contains mutation V106A in HIV reverse transcriptase, Strain C contains mutation L100I in HIV reverse transcriptase, Strain D contains mutation Y188L in HIV reverse transcriptase, Strain E contains mutations L100I and K103N in HIV reverse transcriptase, Strain F contains mutations K103N and Y181C in HIV reverse transcriptase.

For test [2], the system named is Strain IIIB, wild type HIV-LAI strain. The experiment in a line: Antiviral spectrum, cellular assay, strain IIIB. The note with it: Human immunodeficiency virus 1. How it is done: as §1, §2, §3
For test [3], the system named is Strain F, mutations K103N and Y181C in HIV reverse transcriptase. The experiment in a line: Antiviral spectrum, cellular assay, strain F. As to conditions: Human immunodeficiency virus 1, read-out: pEC50 F (converted). The method, then: as §1, §2, §3
Test [4] deals with Strain A, mutation Y181C in HIV reverse transcriptase. The experiment in a line: Antiviral spectrum, cellular assay, strain A. The note with it: Human immunodeficiency virus 1, read-out: pEC50 A (converted). The method, then:
as §1, §2, §3

Test [5] has as its system Strain E, mutations L100I and K103N in HIV reverse transcriptase. The experiment in a line: Antiviral spectrum, cellular assay, strain E. The note with it: Human immunodeficiency virus 1, read-out: pEC50 E (converted). The method, then:
as §1, §2, §3

The test system of test [6] is Strain C, mutation L100I in HIV reverse transcriptase. The experiment in a line: Antiviral spectrum, cellular assay, strain C. The note with it: Human immunodeficiency virus 1, read-out: pEC50 C (converted). The method, then:
as §1, §2, §3

Test [7] concerns Strain B, mutation V106A in HIV reverse transcriptase. The experiment in a line: Antiviral spectrum, cellular assay, strain B. As to conditions: Human immunodeficiency virus 1, read-out: pEC50 B (converted). How it is done: as §1, §2, §3

Regarding `Cc1cc(C#N)cc(C)c1[S+]([O-])c1nc(Nc2ccc(C#N)cc2)nc(N)c1Br` (stereo not drawn) [Compound 3], the EC50 in test [1] is 39.8 nM; in test [2] it was 5.01 nM; in test [3] it was 251 nM; in test [4] it was 79.4 nM; in test [5] it was 6310 nM; in test [6] it was 1580 nM. Also, the EC50 in test [7] was 7.94 nM.

For `Cc1cc(C#N)cc(C)c1Nc1nc(Nc2ccc(C#N)cc2)nc(N)c1Br` [Compound 1], the EC50 was 0.794 nM in test [1]; 0.631 nM in test [2]; 3.98 nM in test [3]; 3.98 nM in test [4]; 3.98 nM in test [5]; 0.794 nM in test [6]. Also, in test [7], the EC50 was 0.398 nM.

Turning to `N#Cc1ccc(Nc2nc(N)c(Br)c(Sc3c(C#N)cc(C#N)cc3C#N)n2)cc1` [Compound 2], the EC50 in test [1] is 3.98 nM; in test [2] it was 3.16 nM; in test [3], 20 nM; in test [4] it was 15.8 nM; in test [5], 7.94 nM; in test [6], 20 nM. Also, the EC50 in test [7] was 3.16 nM.
